This is an account of results in article PMC9217908, “Screening of commonly prescribed drugs for effects on the CAT1-mediated transport of L-arginine and arginine derivatives” (Amino Acids, 2022).

Common to all, as to experiment: cell-based
Assay [1] concerns the target T1, CAT1 (cationic amino acid transporter 1, CAT1/SLC7A1) (Homo sapiens, UniProt P30825).
T1 construct: full-length human transporter stably transfected in HEK cells (HEK-CAT1); net uptake against HEK-VC vector control cells
Details: species or system HEK-CAT1 (HEK293 stably transfected); Inhibition of net CAT1-mediated [3H]-L-homoarginine (1 uM) uptake, 2.5 min, scintillation counting, vector control subtracted. Particulars: HEK293, L-homoarginine 1 uM as substrate; for inhibition at 20 µM: read-out: % Inhibition of L-homoarginine uptake at 20 µM; for inhibition at 200 µM: read-out: % Inhibition of L-homoarginine uptake at 200 µM. An outline of the steps: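 HEK-CAT1 cells with HEK-VC vector controls; [3H]-L-homoarginine (1 μM) uptake over 2.5 min with or without test compound at 20 µM or 200 µM. Net CAT1 uptake (CAT1 minus VC) gives inhibition (%) = 100 – (V/V0 × 100). Negative values mean stimulated uptake; n = 6–9 from at least two independent experiments.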

Assay [2] has as its target T1, CAT1 (cationic amino acid transporter 1, CAT1/SLC7A1). Details: species or system HEK-CAT1 (HEK293 stably transfected); Inhibition of net CAT1-mediated [3H]-L-arginine (100 uM) uptake, 5 min, scintillation counting, vector control subtracted. As to conditions: HEK293, L-arginine 100 uM as substrate; for inhibition at 20 µM: read-out: % Inhibition of L-arginine uptake at 20 µM; for inhibition at 200 µM: read-out: % Inhibition of L-arginine uptake at 200 µM. In outline:
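HEK-CAT1 and vector-control HEK-VC cells took up [3H]-L-arginine (100 μM) for 5 min, with or without drug at 20 or 200 µM; [3H]-L-homoarginine or [3H]-ADMA uptake ran 2.5 min. Net uptake is CAT1 minus VC cells, and inhibition (%) = 100 − (V/V0 × 100). Negative values mean stimulated uptake.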

Assay [3] has the same target. Details: species or system HEK-CAT1 (HEK293 stably transfected); Inhibition of net CAT1-mediated [3H]-ADMA (1 uM) uptake, 2.5 min, scintillation counting, vector control subtracted. Particulars: HEK293, ADMA 1 uM as substrate; for inhibition at 20 µM: read-out: % Inhibition of ADMA uptake at 20 µM; for inhibition at 200 µM: read-out: % Inhibition of ADMA uptake at 200 µM. In outline:
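HEK cells expressing CAT1 and vector-control cells took up [^3H]-L-arginine for 5 min, or [^3H]-L-homoarginine or [^3H]-ADMA (1 μM) for 2.5 min, with or without drug at 20 or 200 µM. Net CAT1 uptake was CAT1 cells minus control cells, and inhibition (%) = 100 − V/V0×100. Negative values mean stimulation; n = 6–9.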

Read-outs that look alike come from different tables or passages of the source.

T1 sequence (P30825 whole entry): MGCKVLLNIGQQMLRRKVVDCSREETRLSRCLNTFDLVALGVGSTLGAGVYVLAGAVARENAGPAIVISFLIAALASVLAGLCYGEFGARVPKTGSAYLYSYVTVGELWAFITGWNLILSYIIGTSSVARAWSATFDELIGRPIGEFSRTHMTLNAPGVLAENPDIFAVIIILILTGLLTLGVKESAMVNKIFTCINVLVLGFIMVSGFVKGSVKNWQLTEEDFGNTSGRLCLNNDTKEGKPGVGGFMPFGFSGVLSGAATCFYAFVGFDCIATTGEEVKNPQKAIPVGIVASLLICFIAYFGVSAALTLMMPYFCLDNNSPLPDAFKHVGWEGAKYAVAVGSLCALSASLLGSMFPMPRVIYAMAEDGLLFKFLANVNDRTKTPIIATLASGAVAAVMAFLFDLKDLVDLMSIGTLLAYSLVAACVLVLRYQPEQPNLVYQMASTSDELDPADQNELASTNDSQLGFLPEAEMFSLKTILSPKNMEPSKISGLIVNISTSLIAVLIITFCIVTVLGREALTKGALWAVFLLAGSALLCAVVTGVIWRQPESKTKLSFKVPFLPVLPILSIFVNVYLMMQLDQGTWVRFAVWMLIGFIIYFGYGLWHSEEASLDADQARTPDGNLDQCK

`CCCC(CCC)C(=O)O` [Valproic acid]: the values for the inhibition at 20 µM in assay [1], in assay [2] and in assay [3] were 10.2 ± 1.4%, 12.6 ± 2.5% and -7.6 ± 4%, respectively. Further, the inhibition (in general, the change of the read-out against control, counted positive when it falls) at 200 µM in assay [1] is -9.5 ± 5.1%; in assay [2], -3.1 ± 6.1%; in assay [3], -47.5 ± 6%.

Regarding `COc1ccnc(C[S+]([O-])c2nc3cc(OC(F)F)ccc3[nH]2)c1OC` (stereo not drawn) [Pantoprazole], the inhibition at 20 µM in assay [1] is 15.2 ± 1.8%; in assay [2] it was 16.7 ± 2.1%; in assay [3], -4.5 ± 1.7%. Further, the figures for the inhibition at 200 µM in assay [1], in assay [2] and in assay [3] were 12.5 ± 0.3%, 10.5 ± 0.9% and -9.9 ± 3.1%, respectively.

With `COc1ccc2c(c1)[C@]13CCCC[C@@H]1[C@H](C2)N(C)CC3` [Dextromethorphan], the inhibition at 20 µM was -0.5 ± 5.8% in assay [1], 7.3 ± 1.9% in assay [2] and -3.3 ± 0.3% in assay [3]. For the same compound, the inhibition at 200 µM amounted to 3.1 ± 0.7% in assay [1], 2.9 ± 3.4% in assay [2] and 6.2 ± 3.4% in assay [3].

In the case of `CCOc1nc2cccc(C(=O)O)c2n1Cc1ccc(-c2ccccc2-c2nnn[nH]2)cc1` [Candesartan], the inhibition at 20 µM in assay [1] was 12.6 ± 2.2%; in assay [2], 14.5 ± 2.4%; in assay [3], -11.1 ± 0.9%. The values for the inhibition at 200 µM in assay [1], in assay [2] and in assay [3] were -12.6 ± 3.8%, -18.8 ± 2.4% and 8.1 ± 3.1%, respectively.

As for `Cc1nnc2n1-c1ccc(Cl)cc1C(c1ccccc1)=NC2` [Alprazolam], the results for the inhibition at 20 µM in assay [1], in assay [2] and in assay [3] were -4.3 ± 5.2%, -3.9 ± 5.3% and 5.8 ± 3.8%, respectively. The inhibition at 200 µM was 9.6 ± 1% in assay [1], 8 ± 2.7% in assay [2] and 4.1 ± 9.5% in assay [3].

For the compound `N[C@@H](Cc1ccc(O)c(O)c1)C(=O)O` [Levodopa], the inhibition at 20 µM in assay [1] was determined as 8.2 ± 3%; in assay [2] it was 8.1 ± 3.1%; in assay [3], 28.1 ± 0.9%. Moreover, the inhibition at 200 µM was 30.4 ± 0.2% in assay [1], 31.4 ± 0.6% in assay [2] and -6 ± 0.5% in assay [3].

With `C=CC[C@@H]1/C=C(\C)C[C@H](C)C[C@H](OC)[C@H]2O[C@@](O)(C(=O)C(=O)N3CCCC[C@H]3C(=O)O[C@H](/C(C)=C/[C@@H]3CC[C@@H](O)[C@H](OC)C3)[C@H](C)[C@@H](O)CC1=O)[C@H](C)C[C@@H]2OC` [Tacrolimus], the inhibition at 20 µM was -10.3 ± 3.6% in assay [1], 28.5 ± 3.7% in assay [2] and -14.2 ± 1.2% in assay [3]. The inhibition at 200 µM in assay [1] is 13.4 ± 1.1%; in assay [2], 69.6 ± 4.8%; in assay [3], -11.8 ± 2.4%.

Regarding `CCCc1nc(C(C)(C)O)c(C(=O)O)n1Cc1ccc(-c2ccccc2-c2nnn[nH]2)cc1` [Olmesartan], the inhibition at 20 µM in assay [1] is 3 ± 2.3%; in assay [2], 2.8 ± 2.3%; in assay [3], -13.2 ± 1.9%. The values for the inhibition at 200 µM in assay [1], in assay [2] and in assay [3] were -13.7 ± 5.1%, -32.8 ± 1.4% and -7.7 ± 3.5%, respectively.

For `CCCCNc1cc(C(=O)O)cc(S(N)(=O)=O)c1Oc1ccccc1` [Bumetanide], the figures for the inhibition at 20 µM in assay [1], in assay [2] and in assay [3] were 8.9 ± 4.1%, 9 ± 4% and -2.8 ± 6.2%, respectively. Further, the inhibition at 200 µM was -8.6 ± 1.9% in assay [1], -10.1 ± 1.7% in assay [2] and -9.7 ± 5.6% in assay [3].

On to `C[C@]12C=CC(=O)C=C1CC[C@@H]1[C@@H]2[C@@H](O)C[C@@]2(C)[C@H]1CC[C@]2(O)C(=O)CO` [Prednisolone], for which the inhibition at 20 µM in assay [1] was -11.1 ± 5.8%; in assay [2], 12.5 ± 4.1%; in assay [3] it was -3.3 ± 6.9%. Moreover, the inhibition at 200 µM in assay [1] is -16.5 ± 2.4%; in assay [2] it was -21.4 ± 1.3%; in assay [3] it was 13.4 ± 4.7%.

Turning to `CN(C)CCCC1(c2ccc(F)cc2)OCc2cc(C#N)ccc21` (stereo not drawn) [Citalopram], the inhibition at 20 µM in assay [1] was 8.8 ± 3.3%; in assay [2], -16.7 ± 9.2%; in assay [3], 8.8 ± 3.3%. Besides, the figures for the inhibition at 200 µM in assay [1], in assay [2] and in assay [3] were 29.6 ± 3.1%, 42.8 ± 4.1% and -15.6 ± 8.1%, respectively.

Turning to `O=C(O)CCCc1ccc(N(CCCl)CCCl)cc1` [Chlorambucil], the inhibition at 20 µM in assay [1] is -18.6 ± 1.4%; in assay [2] it was -23.3 ± 3.8%; in assay [3], -5.1 ± 2.8%. For the same compound, the inhibition at 200 µM in assay [1] was -41.6 ± 6.4%; in assay [2], -43.3 ± 6.5%; in assay [3] it was 13.9 ± 4.4%.

For the compound `CC1(C)S[C@@H]2[C@H](NC(=O)[C@H](N)c3ccc(O)cc3)C(=O)N2[C@H]1C(=O)O` [Amoxicillin], the inhibition at 20 µM in assay [1] stood at 13.3 ± 1%; in assay [2], 14.9 ± 2%; in assay [3] it was 2.7 ± 5.9%. Further, the inhibition at 200 µM in assay [1] stood at 8.8 ± 1.1%; in assay [2], 5.9 ± 2.9%; in assay [3], 10.2 ± 3.2%.

As to `Nc1nc(N)c2nc(-c3ccccc3)c(N)nc2n1` [Triamterene], the inhibition at 20 µM in assay [1] is 10.7 ± 2.1%; in assay [2] it was 5.1 ± 8.8%; in assay [3] it was 12.6 ± 3.2%. Also, the inhibition at 200 µM in assay [1] was 14.1 ± 0.5%; in assay [2], 16.7 ± 1.6%; in assay [3] it was -10.6 ± 0.6%.

In the case of `Cc1cc(=O)n(-c2ccccc2)n1C` [Antipyrine], the inhibition at 20 µM was -8.2 ± 6% in assay [1], -5.1 ± 7.2% in assay [2] and 1.9 ± 2.5% in assay [3]. The inhibition at 200 µM in assay [1] was 12.8 ± 1.4%; in assay [2] it was -12.7 ± 2.5%; in assay [3], -1.2 ± 6.1%.

For the compound `CCCC1O[C@@H]2C[C@H]3[C@@H]4CCC5=CC(=O)C=C[C@]5(C)[C@H]4[C@@H](O)C[C@]3(C)[C@]2(C(=O)CO)O1` (stereo partly drawn) [Budesonide], the values for the inhibition at 20 µM in assay [1], in assay [2] and in assay [3] were -9.7 ± 5.5%, -9.7 ± 7.8% and -13.2 ± 3.7%, respectively. Further, the inhibition at 200 µM in assay [1] was -4.9 ± 6.5%; in assay [2], -6.4 ± 3.9%; in assay [3], -47.7 ± 6.5%.

As to `CN1CCC(=C2c3ccccc3CC(=O)c3sccc32)CC1` [Ketotifen], the inhibition at 20 µM in assay [1] was 7 ± 4.2%; in assay [2] it was 23.9 ± 0.8%; in assay [3], 6.4 ± 4.4%. For the same compound, the figures for the inhibition at 200 µM in assay [1], in assay [2] and in assay [3] were 10.9 ± 2.6%, 9.9 ± 8.2% and 1.4 ± 9.6%, respectively.

`COc1cc(Cc2cnc(N)nc2N)cc(OC)c1OC` [Trimethoprim]: the figures for the inhibition at 20 µM in assay [1], in assay [2] and in assay [3] were -17 ± 1.9%, 9.9 ± 4.2% and -13.7 ± 2.8%, respectively. The inhibition at 200 µM in assay [1] is -13.8 ± 4.1%; in assay [2], -16.3 ± 6.7%; in assay [3] it was -68.1 ± 11.3%.

Turning to `C#C[C@]1(O)CC[C@H]2[C@@H]3CCC4=CC(=O)CC[C@@H]4[C@H]3CC[C@@]21C` [Norethindrone], the inhibition at 20 µM was 23.5 ± 4% in assay [1], 26.9 ± 5% in assay [2] and -3.8 ± 1.6% in assay [3]. For the same compound, the inhibition at 200 µM in assay [1] was -12.8 ± 9.6%; in assay [2], -19.7 ± 3.3%; in assay [3], -3.1 ± 0.5%.

Regarding `CCOC(=O)[C@H](CCc1ccccc1)N[C@H]1CCc2ccccc2N(CC(=O)O)C1=O` [Benazepril], the inhibition at 20 µM was determined as 1.1 ± 4.5% in assay [1], 1.1 ± 4.5% in assay [2] and 28.7 ± 4.6% in assay [3]. The inhibition at 200 µM in assay [1] was 5.8 ± 2.4%; in assay [2], 2.7 ± 6%; in assay [3], 3.1 ± 3.8%.

With `CCOC(=O)C1=C(COCCN)NC(C)=C(C(=O)OC)C1c1ccccc1Cl` (stereo not drawn) [Amlodipine], the inhibition at 20 µM in assay [1] was -9.3 ± 3.3%; in assay [2] it was -3.9 ± 5.2%; in assay [3], -7.3 ± 1.7%. The inhibition at 200 µM is -3.9 ± 4.6% in assay [1], -2.6 ± 3.9% in assay [2] and 4 ± 9.5% in assay [3].

Take `COc1ccccc1OCCNCC(O)COc1cccc2[nH]c3ccccc3c12` (stereo not drawn) [Carvedilol]: the inhibition at 20 µM in assay [1] is -11.2 ± 0.9%; in assay [2], -14.1 ± 1.5%; in assay [3], -1.1 ± 3.1%. Besides, the inhibition at 200 µM in assay [1] is -1.4 ± 7.7%; in assay [2] it was 0.2 ± 3.5%; in assay [3], -7.8 ± 7.1%.
